Measurements taken from US6657086B2, “C2-substituted indan-1-ols and their derivatives, processes for their preparation and their use as pharmaceuticals” (Aventis Pharma Deutschland GmbH, priority 2001, dated 2003).

What was measured:
female NMRI mice = assay: Anorectic action: cumulative evaporated milk consumption after 24 h feed removal; format: in vivo; conditions: compared with control animals
Procedure: The activity of the compounds was assayed as follows:
The anorectic action was tested on female NMRI mice. After removal of feed for 24 hours, the preparation to be tested was administered intraperitoneally (ip) or by gavage (po). The animals were housed singly and, with free access to drinking water, they were offered evaporated milk 30 minutes after administration of the preparation. The consumption of evaporated milk was determined and the general behavior of the animals was monitored every half an hour for 7 hours. The measured milk consumption was compared to that of vehicle-treated control animals.

Structure (SMILES)	Reduction in cumulative milk consumption as % of the control (female NMRI mice; dose 50 mg/kg) [%]	melting point [°C]	Reduction in cumulative milk consumption as % of the control (female NMRI mice; dose 20 mg/kg) [%]
CSC1Cc2cc(Cl)ccc2C1O (stereo not shown) [Example 4, 5-Chloro-2-methylsulfanylindan-1-ol]	85		
CCS(=O)(=O)C1Cc2cc(Cl)ccc2C1O (stereo not shown) [Example 3, 5-Chloro-2-ethanesulfonylindan-1-ol]		145	
CS(=O)(=O)C1Cc2cc(Cl)ccc2C1O (stereo not shown) [Example 1, 5-Chloro-2-methylsulfonylindan-1-ol]		163	50
